Laboratory results as given in patent publication US9364449B2, “Peptoid and synthetic oligomers, pharmaceutical compositions and methods of using same” (New York University, priority 2011, dated 2016).
Entries after “also recorded” stand apart in the source; their conditions may differ. Non-standard residues stand in square brackets, D forms with d. Residues, ends and D or L forms follow the SMILES beside them. No end group written: not given here. Sar = CNCC(=O)O

Key:
Aβ1-40 [1] = biological target: T1, Aβ1-40 (Homo sapiens, UniProt P05067); assay: Thioflavine-T aggregation assay, Aβ1-40 aggregated in the presence of compound; format: biochemical
T1 construct: made in house; host or cells: chemical solid-phase peptide synthesis (L-amino acids), RP-HPLC purified
Procedure: (§1) Peptoid modified derivatives of the KLVFFA (SEQ ID NO: 4) sequence were tested using Thioflavine-T aggregation assay to determine whether or not they are capable of forming fibrils themselves. […] In these treatment experiments, 100 μM Aβ40 or Aβ42 was mixed with 1-100 μM of the investigated compound and incubated up to 14 days. […] They were incubated alone or in the presence of peptoid modified derivatives of KLVFFA (SEQ ID NO: 4) sequence at concentrations of 1-100 μM. In addition, peptoid modified derivatives of KLVFFA (SEQ ID NO: 4) sequence were incubated alone as indicated above at the concentration of 100 μM. At the indicated intervals, samples containing 15 μg of incubated peptides were added to 1 mL of 50 mM/L glycine, pH 9.2 and 2 μM/L of Thioflavin-T (Sigma Chemical, Co.; St. Louis, Mo.). Fluorescence was measured at excitation 435 nm and emission 485 nm in a Hitachi F-2000 fluorescence spectrophotometer. A time scan of fluorescence was performed and three values after the decay reached a plateau (280, 290, 300 seconds) were averaged. The background fluorescence of 40 μl of Tris buffer added to 2 μM/L of Thioflavin-T solution was subtracted. Samples were run in duplicate. Differences in amount of fibrils formed by different peptides at particular time points were evaluated by one-way ANOVA followed by Tukey post hoc test.

[2] = tested on: primary hippocampal neurons; assay: Accumulation of aggregated FITC labeled Aβ1-40 on the surface of neurons; format: cell-based, C57bL/6 mice; conditions: 18 DIV neurons, FITC labeled Aβ1-40, treated with compound
Procedure: P0-P1 pups of C57bL/6 mice were killed by decapitation and brains were removed in aseptic conditions. To establish cultures of primary hippocampal neurons the hippocampi were dissected from both hemispheres under AmScope stereoscopic microscope (AmScope, Chino, Calif.). Fragments of tissue were placed in the ice-cold Ca^2+ and Mg^2+ free Hank's balanced salt solution (HBSS) and gently cut further into fine pieces which were then treated with 0.05% trypsin in HBSS for 10 min at 37° C. to obtain cell suspension. Following addition of 0.1% type-I-S trypsin inhibitor and 0.05% DNase I, the cell suspension was centrifuged at 500×g for 30 sec. […] The cell suspension was then filtered through a 70-μm mesh, and the cells were counted using hematocytometer (Hausser Scientific, Horsham, Pa.). […]
Coverslip inserts covered by the primary hippocampal neuro^ns were immersed three times in PBS at 37° C., and then in 80% ice-cold methanol for 10 min to fix the neurons, and washed again three times in PBS. […] Biotinylated secondary antibodies (1:1,000) followed by Cy3 conjugated streptavidine (1:500) were used to detected binding of primary Abs to their antigens. […] Immunostained neurons were analyzed under 80i Nikon fluorescent microscope (Nikon Corp. Tokyo, Japan). […]

[3] = Thioflavine-T aggregation assay, compound incubated alone (own fibril formation); format: physicochemical; conditions: compound alone at 100 μM
Procedure: as §1

[4] = tested on: primary hippocampal neurons; assay: Intraneuronal Aβ accumulation (Western blot of neuronal lysates, densitometry); format: cell-based, C57bL/6 mice; conditions: 10 μM Aβ40 with or without compound, p<0.01
Procedure: P0-P1 pups of C57bL/6 mice were killed by decapitation and brains were removed in aseptic conditions. To establish cultures of primary hippocampal neurons the hippocampi were dissected from both hemispheres under AmScope stereoscopic microscope (AmScope, Chino, Calif.). Fragments of tissue were placed in the ice-cold Ca^2+ and Mg^2+ free Hank's balanced salt solution (HBSS) and gently cut further into fine pieces which were then treated with 0.05% trypsin in HBSS for 10 min at 37° C. to obtain cell suspension. Following addition of 0.1% type-I-S trypsin inhibitor and 0.05% DNase I, the cell suspension was centrifuged at 500×g for 30 sec. The resulting pellet was triturated, centrifuged again at 500×g for 5 min and resuspended in the minimal essential medium (MEM) supplemented with heat-inactivated 10% fetal bovine serum (FBS), 0.5 mM glutamine, streptomycin (50 μg/ml) and penicillin (50 U/ml). The cell suspension was then filtered through a 70-μm mesh, and the cells were counted using hematocytometer (Hausser Scientific, Horsham, Pa.). The cells were seeded on poly-L-lysine coated 12-well plates. For biochemical analysis 5×10^5 cells were seeded directly on the bottom of each well whereas for immunohistochemistry a removable, poly-L-lysine coated round coverslip was placed on the bottom of the well and the number of seeded cells was reduced to 1×10^5 per well. […]

[5] = tested on: primary hippocampal neurons; assay: Immunocytochemistry and quantification of synaptic protein expression in neurons exposed to Aβ40; format: cell-based, C57bL/6 mice
Procedure: P0-P1 pups of C57bL/6 mice were killed by decapitation and brains were removed in aseptic conditions. To establish cultures of primary hippocampal neurons the hippocampi were dissected from both hemispheres under AmScope stereoscopic microscope (AmScope, Chino, Calif.). Fragments of tissue were placed in the ice-cold Ca^2+ and Mg^2+ free Hank's balanced salt solution (HBSS) and gently cut further into fine pieces which were then treated with 0.05% trypsin in HBSS for 10 min at 37° C. to obtain cell suspension. Following addition of 0.1% type-I-S trypsin inhibitor and 0.05% DNase I, the cell suspension was centrifuged at 500×g for 30 sec. The resulting pellet was triturated, centrifuged again at 500×g for 5 min and resuspended in the minimal essential medium (MEM) supplemented with heat-inactivated 10% fetal bovine serum (FBS), 0.5 mM glutamine, streptomycin (50 μg/ml) and penicillin (50 U/ml). The cell suspension was then filtered through a 70-μm mesh, and the cells were counted using hematocytometer (Hausser Scientific, Horsham, Pa.). The cells were seeded on poly-L-lysine coated 12-well plates. For biochemical analysis 5×10^5 cells were seeded directly on the bottom of each well whereas for immunohistochemistry a removable, poly-L-lysine coated round coverslip was placed on the bottom of the well and the number of seeded cells was reduced to 1×10^5 per well. The neurons were allowed to adhere to the surface for four hours and then the medium was replaced with the serum-free Neurobasal medium containing 2% B27 supplement, 0.5 mM glutamine, streptomycin (50 μg/ml) and penicillin (50 U/ml). At three days in vitro (DIV) 5 μM of cytosine-β-D-arabinoside (Ara C) was added for 48 hr to inhibit division of non-neuronal cells. At 7 DIV one well from each preparation of primary hippocampal neurons was randomly selected to determine the purity of the culture. This was done by calculating the ratio of cells immunostained against microtubule-associated protein 2 (MAP2), which is a neuronal specific marker against all cells stained with 4′,6-diamidino-2-phenylindole (DAPI) nucleic acid stain.
Monomerized Aβ40 peptides were diluted in cell culture media and added to neuronal monocultures for 24 or 72 hr.

[6] = In vivo pharmacokinetic studies in rats
Aβ1-40 [7] = biological target: T1, Aβ1-40; assay: Oligomerization assay (glutaraldehyde cross-linking, Western blot, densitometry); format: biochemical; conditions: 100 μM Aβ1-40 with 10 μM compound (10:1 Aβ:inhibitor), 4° C., 24 h
Procedure: Autoradiography films were converted into 8 bit grayscale digital files using a Epson Perfection 4990 scanner (Epson America; Long Beach, Calif.) and Adobe Photoshop CS4 (Adobe Systems; San Jose, Calif.) and saved in a TIF format with a resolution of 600 dpi. Densitometric analysis of Western and dot-blot signals was performed using NIH Image J software v 1.42 (Bethesda, Md.) as previously described (Pankiewicz et al., 2006. Eur. J. Neurosci. 23, 2635-47; Sadowski et al., 2009. Neurobiol Dis; 34, 267-78).
The rationale is that Aβ oligomeric assemblies are particularly toxic to synaptic components and impair neurotransmission. […] GKLVFNmgA (SEQ ID NO: 310:1 Aβ:inhibitor ratio). Prior to electrophoresis, glutaraldehyde (0.4 mM final concentration) was added to prevent disassembly of complexes. Samples were immediately subjected to electrophoresis in non-reducing condition, Western-transfer, and detection with a mixture of 4G8 and 6E10 anti-Aβ Mabs.

[8] = tested on: eAβ1-x in brain interstitial fluid (ISF); assay: In vivo microdialysis of brain interstitial fluid eAβ in AD transgenic mice; parameters: species or system APPSW/PS1L166P AD transgenic mice; conditions: 100 μM compound by reverse microdialysis into hippocampal CA1
Procedure: Mice were anesthetized with an intraperitoneal injection of Ketamine (50 mg/kg) and Xylazine (10 mg/kg). An MBR-10 guide cannula was stereotactically implanted into the right hippocampus (bregma −3.1 mm, 2.4 mm lateral, 12° angle). Four hours later mice were anesthetized again for the insertion of a BR-4 microdialysis probe with 38 kDa molecular weight cutoff (MWCO) membrane (Cirrito et al., 2008. 2008. Neuron; 58, 42-51) which was introduced through the implanted guide cannula. The probe was positioned so that the microdialysis membrane was almost entirely embedded in the strata radiatum and lacunosum-moleculare of the CA1 hippocampal sector (FIG. 8A). […]
eAβ level in the ISF dialyzate was determined using sandwich ELISA specific for human Aβ1-x. […] Absorbance was read on the Epoch Microplate Spectrophotometer (BioTek Instruments, Inc. Winooski, Vt.). Following background subtraction, absorbance values from serially diluted synthetic Aβ samples were used to generate a standard curve in GraphPad Prism v5.02 (GraphPad Software, Inc., San Diego) using a non-linear curve-fitting algorithm. eAβ concentration in dialysate samples was determined by comparing their absorbance values against the standard curve. […]

[9] = tested on: SK-N-SH human neuroblastoma cells; assay: MTT toxicity assay; conditions: four day MTT cytotoxicity assay
Procedure: SK-N-SH cells were plated at 10,000 cells/100 μl per well in flat-bottom, 96-well microtiter plates and incubated with 1-100 μmol/L concentrations of tested peptides for two days after which cell viability was assessed using a metabolic assay, which is based on cleavage of the yellow tetrazolium salt (MTT) to purple formazan crystals by viable cells. The MTT assay (Roche Molecular Biochemicals, Indianapolis, Ind.) was performed according to the manufacturer's instructions.

[10] = 18 DIV neurons, 10 μM Aβ40 plus 5 μM compound, 72 hr

T1 sequence (P05067 672-711): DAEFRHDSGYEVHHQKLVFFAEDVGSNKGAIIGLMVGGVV

Molecule	inhibitory effect on the aggregation of Aβ1-40 (Aβ1-40 [1]; 1 μM compound, 100 μM Aβ1-40 (1:100 compound:Aβ ratio), p<0.001)	dose dependent effect on aggregation of Aβ1-40 (Aβ1-40 [1]; 100 μM Aβ1-40, 1-100 μM compound)	accumulation of aggregated Aβ1-40 on the surface of neurons [2]	fibril formation by the compound itself [3]	less Aβ accumulated in neurons after six hr of exposure ([4]; 6 hr)	less Aβ accumulated in neurons after 24 hr of exposure ([4]; 24 hr)	NR1 NMDA receptor subunit positive densities, % of the control [5, 10]	PSD-95 positive densities, % of the control [5, 10]	synaptophysin positive densities, % of the control [5, 10]	effect of compound alone on the expression of NR1, synaptophysin and PSD-95 ([5]; neurons treated with compound alone, no Aβ)	blood brain barrier (BBB) penetration [6]	detection in the cerebrospinal fluid (CSF) ([6]; following intravenous administration)	level in plasma after intranasal delivery ([6]; intranasal)	level in plasma following oral delivery ([6]; oral)	half-life ([6]; rat, in vivo)	reduction of the amount of Aβ oligomers (densitometric analysis) (Aβ1-40 [7])	hour after the infusion onset from which the increase in eAβ was observed [8]	concentration at which toxicity was exhibited in MTT assay [9]
CC(C)CC(NC(=O)C(CCCCN)NC(=O)CN)C(=O)NC(C(=O)NC(Cc1ccccc1)C(=O)N(C)CC(=O)NC(C)C(N)=O)C(C)C (stereo not drawn) [GKLVFNmgA] (H-GKLVF[Sar]A-NH2; configuration not given here)	strong inhibitory effect	strong dose dependent effect	Reduction in the number of AB aggregates; also recorded: Reduced accumulation	did not form fibrils itself; also recorded: does not form fibrils itself	29.8%	49.3%	83 % of the control	82.3 % of the control	84.5 % of the control	no significant effect	good	can be detected	High level	Lesser level	< 2 h	61.3%	seventh	
GKLVFFA-NH2 [GKLVFFA]																		100 µM
